Values quoted from earlier work as cited in patent US7320786B2, “Photodynamic therapy treatment for eye disease” (Light Sciences Oncology, Inc., priority 2000, dated 2008).

Details: systemically administered photosensitizer, clinical use
For `CCOC(=O)C1=Cc2c3nc(cc4nc(cc5[n-]c(cc6[n-]c2c(C)c6CC)c(C)c5CC)C(C)=C4CC)[C@@H](C)[C@]13CC.[Cl-].[Cl-].[Sn]` (racemic) [Purlytin], the “duration of skin photosensitivity” value is listed as “several”.
For `Oc1cccc(-c2c3nc(c(-c4cccc(O)c4)c4ccc([nH]4)c(-c4cccc(O)c4)c4nc(c(-c5cccc(O)c5)c5ccc2[nH]5)CC4)C=C3)c1` [Foscan], the “duration of skin photosensitivity” value is listed as “several”.
For sodium porfimer [Photophrin], the “duration of skin photosensitivity” value is given as “up to 6 weeks”.
